Experimental data reported in US11633335B2, “Skin cleansing composition” (KAO CORPORATION, priority 2017, dated 2023).

Experiments:
[1] = cited from earlier work
[2] = Keratotic plug detergency after washing with water: collapse state one minute after contact with water; design: species or system human; settings: sample substituted with water; samples of Table 1
Text: The penetration was relatively evaluated by criteria with 11 ratings starting from the rating 1 “the sample hardly penetrated into the keratotic plug” to the rating 11 “the sample penetrated to the center of the keratotic plug”. The collapsibility by the detergency against keratotic plug was relatively evaluated by criteria with 11 ratings starting from the rating 1 “almost no change is observed in the external appearance of the keratotic plug” to the rating 11 “peeling or separation is observed in the area from the surface layer to the central portion of the keratotic plug (the initial appearance of the keratotic plug is not retained)”. After one minute from the contact of the keratotic plugs with the sample, Kimwipes (registered trademark) was brought into contact with an edge of the cover glass to remove the sample under the cover glass. […] The results of the evaluation are shown in the column “Keratotic plug detergency (during washing with water)” in Table. The measurements were performed at 25° C.

[3] = Keratotic plug detergency (penetration): penetration of the sample into keratotic plugs one minute after contact, digital microscope; design: species or system human; settings: contact with the sample for 1 minute; samples of Table 1
Procedure: Keratotic plugs in the nasal region were removed with “Biore Nose Pack (manufactured by Kao Corporation)”, the resulting keratotic plugs on the pack were gently taken out with tweezers. […] Consequently, the sample entered into the gap between the slide glass and the cover glass by capillary phenomenon and was brought into contact with the keratotic plugs. The contact of the keratotic plugs and the sample was recorded with a digital microscope (VHX-5000, manufactured by Keyence Corporation, magnification: 150×), and the penetration of the sample into the keratotic plugs and the collapse state of the keratotic plugs were evaluated after one minute from the contact of the keratotic plugs with the sample. The results of each evaluation are shown in the columns “Keratotic plug detergency (penetration)” and “Keratotic plug detergency (during cleansing)” in Tables. The measurements were performed at 25° C. The penetration was relatively evaluated by criteria with 11 ratings starting from the rating 1 “the sample hardly penetrated into the keratotic plug” to the rating 11 “the sample penetrated to the center of the keratotic plug”. The collapsibility by the detergency against keratotic plug was relatively evaluated by criteria with 11 ratings starting from the rating 1 “almost no change is observed in the external appearance of the keratotic plug” to the rating 11 “peeling or separation is observed in the area from the surface layer to the central portion of the keratotic plug (the initial appearance of the keratotic plug is not retained)”.

[4] = Keratotic plug detergency (during cleansing): collapse state of keratotic plugs one minute after contact with the sample; design: species or system human; settings: contact with the sample for 1 minute; samples of Table 1
Procedure: Keratotic plugs in the nasal region were removed with “Biore Nose Pack (manufactured by Kao Corporation)”, the resulting keratotic plugs on the pack were gently taken out with tweezers.
The resulting keratotic plugs were placed on a slide glass and were covered with a cover glass, and 0.05 mL of a sample was dropwise added to an edge of the cover glass. Consequently, the sample entered into the gap between the slide glass and the cover glass by capillary phenomenon and was brought into contact with the keratotic plugs. The contact of the keratotic plugs and the sample was recorded with a digital microscope (VHX-5000, manufactured by Keyence Corporation, magnification: 150×), and the penetration of the sample into the keratotic plugs and the collapse state of the keratotic plugs were evaluated after one minute from the contact of the keratotic plugs with the sample. The results of each evaluation are shown in the columns “Keratotic plug detergency (penetration)” and “Keratotic plug detergency (during cleansing)” in Tables. The measurements were performed at 25° C.
The penetration was relatively evaluated by criteria with 11 ratings starting from the rating 1 “the sample hardly penetrated into the keratotic plug” to the rating 11 “the sample penetrated to the center of the keratotic plug”. The collapsibility by the detergency against keratotic plug was relatively evaluated by criteria with 11 ratings starting from the rating 1 “almost no change is observed in the external appearance of the keratotic plug” to the rating 11 “peeling or separation is observed in the area from the surface layer to the central portion of the keratotic plug (the initial appearance of the keratotic plug is not retained)”.

[5] = tested on: insoluble protein (seine protein); experiment: Evaluation of effect of suppressing protein aggregation (precipitation of insoluble protein); settings: sample of Table 1
Procedure: Thirty milliliters of a sample and 0.06 g of an insoluble protein (seine protein) were placed in a 35-mL standard glass bottle, and the concentration of the insoluble protein was adjusted to 0.2 mass % (test sample). Separately, a standard sample was prepared by using water instead of the sample and adjusting the concentration of the insoluble protein to 0.2 mass %. Subsequently, the standard glass bottles were sufficiently shaken and stirred up and down (shake width: 15 cm, 20 times at a rate of 5 times for 3 seconds) in a thermostatic chamber of 25° C. and were left to stand for 3 minutes. The precipitation state of the insoluble protein was then visually verified, and the ratio of the amount of the precipitated standard sample to the amount of the precipitated test sample (the height of the precipitate in each standard glass bottle was measured as the precipitation amount), (precipitation amount of standard sample)/(precipitation amount of test sample), was calculated. A higher ratio indicates a higher effect of suppressing protein aggregation.

CC(C)(N)CO [AMP, 2-amino-2-methyl-1-propanol]
solubility in water (in words) [1]: readily dissolved in water | collapse of keratotic plugs during washing with water (in words) [2]: further accelerating the collapse of keratotic plugs | penetration of the sample into keratotic plugs (in words) [3]: the sample penetrated into keratotic plugs

NC(CO)(CO)CO [Tris, 2-amino-2-hydroxymethyl-1,3-propanediol]
solubility in water (in words) [1]: readily dissolved in water

O=P([O-])([O-])O.[Na+].[Na+] [disodium hydrogen phosphate]
collapse of keratotic plugs in contact with the sample, assumption of cleansing (in words) [4]: the collapse of the keratotic plugs did not progress | collapse of keratotic plugs during washing with water (in words) [2]: the collapse of keratotic plugs did not progress | penetration of the sample into keratotic plugs (in words) [3]: the sample hardly penetrated into keratotic plugs

O=C([O-])O.[Na+] [sodium hydrogen carbonate]
collapse of keratotic plugs in contact with the sample, assumption of cleansing (in words) [4]: the collapse of the keratotic plugs did not progress | collapse of keratotic plugs during washing with water (in words) [2]: the collapse of keratotic plugs did not progress | penetration of the sample into keratotic plugs (in words) [3]: the sample hardly penetrated into keratotic plugs

O=P([O-])([O-])[O-].[Na+].[Na+].[Na+] [trisodium phosphate]
collapse of keratotic plugs in contact with the sample, assumption of cleansing (in words) [4]: the collapse of the keratotic plugs did not progress | collapse of keratotic plugs during washing with water (in words) [2]: the collapse of keratotic plugs did not progress | penetration of the sample into keratotic plugs (in words) [3]: the sample hardly penetrated into keratotic plugs

sodium polyoxyethylene (2) lauryl ether sulfate [POE (2) sodium lauryl sulfate]
action on proteins (in words) [5]: the action on proteins was strong to dissolve the proteins | collapse of keratotic plugs in contact with the sample, assumption of cleansing (in words) [4]: the collapse of the keratotic plugs did not progress | penetration of the sample into keratotic plugs (in words) [3]: hardly penetrated into the keratotic plugs
